{
  "source": "patent US20250325710A1",
  "about": "“Advanced In Vivo Platform to Study Human Neural Maturation and Circuit Integration” (priority 2022, published 2025)",
  "key": {"[1]": {"biological_target": "element-binding protein (CBP) (Homo sapiens, UniProt Q92793)", "sequence (Q92793 whole entry)": "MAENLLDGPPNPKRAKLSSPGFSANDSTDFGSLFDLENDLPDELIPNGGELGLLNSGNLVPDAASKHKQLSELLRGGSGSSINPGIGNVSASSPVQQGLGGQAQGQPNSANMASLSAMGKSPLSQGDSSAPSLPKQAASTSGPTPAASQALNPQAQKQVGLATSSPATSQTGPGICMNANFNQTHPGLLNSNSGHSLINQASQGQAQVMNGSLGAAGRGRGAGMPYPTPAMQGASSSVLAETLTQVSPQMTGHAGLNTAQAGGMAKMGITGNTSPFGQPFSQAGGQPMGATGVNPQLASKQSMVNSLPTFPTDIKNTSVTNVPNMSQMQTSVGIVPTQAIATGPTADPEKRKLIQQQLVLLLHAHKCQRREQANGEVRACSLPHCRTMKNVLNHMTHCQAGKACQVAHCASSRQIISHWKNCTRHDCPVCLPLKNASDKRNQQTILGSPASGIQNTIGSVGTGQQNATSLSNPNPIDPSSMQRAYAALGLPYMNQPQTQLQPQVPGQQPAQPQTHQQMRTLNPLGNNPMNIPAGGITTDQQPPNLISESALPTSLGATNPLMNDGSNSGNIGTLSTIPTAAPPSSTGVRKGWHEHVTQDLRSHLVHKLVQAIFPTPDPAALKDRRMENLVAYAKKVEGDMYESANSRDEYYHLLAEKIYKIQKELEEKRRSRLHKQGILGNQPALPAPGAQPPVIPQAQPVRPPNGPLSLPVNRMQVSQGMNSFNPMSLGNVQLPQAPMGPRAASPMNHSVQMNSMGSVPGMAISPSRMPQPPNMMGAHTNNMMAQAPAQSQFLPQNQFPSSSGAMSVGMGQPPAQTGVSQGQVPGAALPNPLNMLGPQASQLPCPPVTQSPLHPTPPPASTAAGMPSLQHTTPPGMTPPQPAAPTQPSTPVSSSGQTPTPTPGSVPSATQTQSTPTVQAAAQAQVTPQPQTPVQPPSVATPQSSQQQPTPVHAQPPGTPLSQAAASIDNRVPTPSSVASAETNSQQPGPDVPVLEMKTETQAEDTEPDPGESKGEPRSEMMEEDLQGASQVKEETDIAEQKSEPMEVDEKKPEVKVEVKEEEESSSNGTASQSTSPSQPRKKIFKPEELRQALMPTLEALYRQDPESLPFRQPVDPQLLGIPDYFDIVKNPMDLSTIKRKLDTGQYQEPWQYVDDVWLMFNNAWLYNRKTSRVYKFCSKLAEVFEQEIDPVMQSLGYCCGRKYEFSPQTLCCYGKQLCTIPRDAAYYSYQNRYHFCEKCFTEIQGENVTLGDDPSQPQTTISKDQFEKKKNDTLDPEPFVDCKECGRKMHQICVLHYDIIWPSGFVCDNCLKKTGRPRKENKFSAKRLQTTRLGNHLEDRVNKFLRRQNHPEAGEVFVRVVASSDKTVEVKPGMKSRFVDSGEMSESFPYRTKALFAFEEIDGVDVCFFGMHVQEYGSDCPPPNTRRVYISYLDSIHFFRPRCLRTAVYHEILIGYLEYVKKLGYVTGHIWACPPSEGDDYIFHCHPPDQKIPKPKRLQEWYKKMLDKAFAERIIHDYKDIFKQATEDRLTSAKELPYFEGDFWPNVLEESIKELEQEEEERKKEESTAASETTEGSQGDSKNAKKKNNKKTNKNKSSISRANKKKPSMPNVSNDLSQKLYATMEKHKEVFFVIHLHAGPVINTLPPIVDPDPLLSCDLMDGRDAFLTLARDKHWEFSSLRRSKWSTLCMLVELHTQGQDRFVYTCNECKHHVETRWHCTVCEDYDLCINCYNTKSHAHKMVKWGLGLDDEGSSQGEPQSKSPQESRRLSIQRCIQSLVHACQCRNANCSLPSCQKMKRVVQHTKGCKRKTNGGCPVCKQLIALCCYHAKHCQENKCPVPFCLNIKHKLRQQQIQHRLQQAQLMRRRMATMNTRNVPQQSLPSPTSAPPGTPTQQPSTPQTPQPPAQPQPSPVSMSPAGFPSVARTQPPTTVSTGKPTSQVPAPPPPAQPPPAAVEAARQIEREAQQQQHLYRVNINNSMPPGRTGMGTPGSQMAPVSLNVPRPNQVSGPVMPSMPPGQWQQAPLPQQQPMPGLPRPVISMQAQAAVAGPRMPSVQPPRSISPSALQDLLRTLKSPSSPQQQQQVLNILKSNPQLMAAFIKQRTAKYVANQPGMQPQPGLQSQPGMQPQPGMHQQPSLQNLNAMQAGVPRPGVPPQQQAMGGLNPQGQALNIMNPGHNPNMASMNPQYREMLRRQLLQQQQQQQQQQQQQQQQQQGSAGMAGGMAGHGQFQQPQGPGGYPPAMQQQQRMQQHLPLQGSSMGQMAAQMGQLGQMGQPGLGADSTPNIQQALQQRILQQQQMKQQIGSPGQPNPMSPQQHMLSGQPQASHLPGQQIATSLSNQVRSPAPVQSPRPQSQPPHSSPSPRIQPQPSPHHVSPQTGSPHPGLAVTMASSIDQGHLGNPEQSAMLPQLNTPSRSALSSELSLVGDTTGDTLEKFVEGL", "settings": "cited from earlier work"}, "[2]": {"biological_target": "T1, TNKS2 (Homo sapiens, UniProt Q9H2K2)", "T1 sequence (Q9H2K2 1-1166)": "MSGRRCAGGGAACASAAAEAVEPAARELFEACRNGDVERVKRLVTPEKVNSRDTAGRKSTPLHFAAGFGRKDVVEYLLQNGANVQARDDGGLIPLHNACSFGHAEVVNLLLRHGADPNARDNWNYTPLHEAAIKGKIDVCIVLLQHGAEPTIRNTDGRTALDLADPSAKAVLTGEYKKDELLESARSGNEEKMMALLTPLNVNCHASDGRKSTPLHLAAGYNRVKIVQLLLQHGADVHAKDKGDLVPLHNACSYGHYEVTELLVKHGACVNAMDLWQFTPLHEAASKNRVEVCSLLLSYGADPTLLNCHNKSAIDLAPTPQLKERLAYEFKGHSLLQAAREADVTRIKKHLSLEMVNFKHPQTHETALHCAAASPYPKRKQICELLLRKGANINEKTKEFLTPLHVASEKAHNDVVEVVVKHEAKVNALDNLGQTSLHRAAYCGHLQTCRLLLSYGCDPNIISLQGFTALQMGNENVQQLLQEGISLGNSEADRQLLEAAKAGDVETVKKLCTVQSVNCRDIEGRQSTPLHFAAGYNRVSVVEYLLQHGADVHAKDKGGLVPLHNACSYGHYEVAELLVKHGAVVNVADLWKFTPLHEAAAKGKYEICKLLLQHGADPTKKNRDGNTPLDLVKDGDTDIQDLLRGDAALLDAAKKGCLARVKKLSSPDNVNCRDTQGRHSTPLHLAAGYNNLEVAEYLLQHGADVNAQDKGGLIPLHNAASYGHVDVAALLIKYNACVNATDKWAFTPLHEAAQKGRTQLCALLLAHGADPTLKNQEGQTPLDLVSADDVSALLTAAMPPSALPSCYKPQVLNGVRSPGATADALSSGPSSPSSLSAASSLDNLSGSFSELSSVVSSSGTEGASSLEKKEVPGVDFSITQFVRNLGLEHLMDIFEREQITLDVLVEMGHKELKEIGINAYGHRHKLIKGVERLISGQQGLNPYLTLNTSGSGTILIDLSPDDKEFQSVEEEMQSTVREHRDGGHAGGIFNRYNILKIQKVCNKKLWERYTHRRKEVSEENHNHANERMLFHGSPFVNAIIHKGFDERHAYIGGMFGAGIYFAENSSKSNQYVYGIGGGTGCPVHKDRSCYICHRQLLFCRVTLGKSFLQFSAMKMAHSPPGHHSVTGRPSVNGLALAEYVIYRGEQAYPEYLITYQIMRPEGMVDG", "settings": "cited from earlier work"}, "[3]": {"biological_target": "Smo heptahelical domain (Homo sapiens, UniProt Q99835)", "sequence (Q99835 28-787)": "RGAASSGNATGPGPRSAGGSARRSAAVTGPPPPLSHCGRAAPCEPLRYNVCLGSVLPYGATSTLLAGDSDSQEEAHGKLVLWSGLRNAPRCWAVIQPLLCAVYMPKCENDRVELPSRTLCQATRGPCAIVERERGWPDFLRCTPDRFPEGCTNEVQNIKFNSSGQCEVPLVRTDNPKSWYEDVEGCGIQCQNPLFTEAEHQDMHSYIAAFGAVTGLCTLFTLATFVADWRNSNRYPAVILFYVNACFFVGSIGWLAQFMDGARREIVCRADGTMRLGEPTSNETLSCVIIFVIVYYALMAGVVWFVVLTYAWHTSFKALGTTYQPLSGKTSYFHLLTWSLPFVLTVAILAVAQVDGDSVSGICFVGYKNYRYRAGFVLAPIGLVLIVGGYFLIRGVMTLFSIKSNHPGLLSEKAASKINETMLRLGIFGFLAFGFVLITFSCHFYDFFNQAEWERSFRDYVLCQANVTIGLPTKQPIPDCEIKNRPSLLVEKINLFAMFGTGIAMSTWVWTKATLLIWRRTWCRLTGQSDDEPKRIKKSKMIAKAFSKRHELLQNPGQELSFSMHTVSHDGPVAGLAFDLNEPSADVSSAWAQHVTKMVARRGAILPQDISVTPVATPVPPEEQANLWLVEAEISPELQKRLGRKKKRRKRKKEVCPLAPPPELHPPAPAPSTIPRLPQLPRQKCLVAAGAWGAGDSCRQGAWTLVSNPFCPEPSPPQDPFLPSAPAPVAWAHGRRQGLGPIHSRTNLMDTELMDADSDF", "settings": "cited from earlier work"}, "[4]": {"tested_on": "PORCN", "settings": "HEK293 cells; read-out: IC50, Wnt3A-mediated activation of a multimerized TCF-binding site driving luciferase; cited from earlier work"}, "[5]": {"tested_on": "PORCN", "settings": "read-out: EC50, Porcn inhibitor; cited from earlier work"}, "[6]": {"tested_on": "Wnt processing and secretion", "settings": "cell-free assay; cited from earlier work"}, "[7]": {"tested_on": "Wnt-stimulated cellular responses", "settings": "cited from earlier work"}, "[8]": {"tested_on": "AMPA receptor", "test": "Whole-cell recordings of evoked EPSCs in t-hCS human neurons in acute thalamocortical slices", "type": "cell-based", "settings": "evoked by electrical stimulation of rat S1, internal capsule, white matter or t-hCS, or optogenetic activation of thalamic terminals; NBQX 10 μM"}, "[9]": {"tested_on": "AMPA receptor", "test": "Whole-cell recordings of blue light-evoked EPSCs in rat pyramidal cortical neurons in acute brain slices (activation of t-hCS axons)", "type": "cell-based", "settings": "evoked by blue light activation of t-hCS axons; NBQX 10 μM"}, "[10]": {"tested_on": "blue light-evoked EPSCs in rat pyramidal cortical neurons", "type": "cell-based"}, "[11]": {"tested_on": "Wnt signaling", "settings": "TM3 cells; cited from earlier work"}},
  "data": [
    {"smiles": "O=C1[C@H](Cc2ccc(O)cc2)N2C(=O)CCN(C(=O)NCc3ccccc3)[C@H]2CN1Cc1cccc2ccccc12", "note": "[ICG-001]", "values": [
      {"measurement": "IC50", "setting": "[1]", "result": 3000, "unit": "nM"}
    ]},
    {"smiles": "COc1ccc(-n2c(SCCCN3C(=O)c4cccc5cccc(c45)C3=O)nnc2-c2ccncc2)cc1", "note": "[WIKI4]", "values": [
      {"measurement": "IC50", "setting": "[2]", "result": 15, "unit": "nM"}
    ]},
    {"smiles": "CNC1CCC(N(Cc2cccc(-c3ccncc3)c2)C(=O)c2sc3ccccc3c2Cl)CC1", "note": "(centres unmarked) [SAG]", "values": [
      {"measurement": "Kd", "setting": "[3]", "result": 59, "unit": "nM"}
    ]},
    {"smiles": "Cc1cc(-c2ccc(CC(=O)Nc3ccc(-c4cccnc4)cc3)cc2)ccn1", "note": "[Wnt-C59]", "values": [
      {"measurement": "IC50", "setting": "[4]", "result": 0.074, "unit": "nM"}
    ]},
    {"smiles": "O=C(CSc1nc2c(c(=O)n1-c1ccccc1)SCC2)Nc1ccc(-c2ccccc2)cn1", "note": "[IWP-L6]", "values": [
      {"measurement": "EC50", "setting": "[5]", "result": 0.5, "unit": "nM"}
    ]},
    {"smiles": "Cc1ccc2nc(NC(=O)CSc3nc4c(c(=O)n3-c3ccccc3)SCC4)sc2c1", "note": "[IWP-2]", "values": [
      {"measurement": "IC50", "setting": "[6]", "result": 27, "unit": "nM"},
      {"measurement": "Effect against Wnt-stimulated cellular responses", "setting": "[7]", "result": "no effect"}
    ]},
    {"smiles": "NS(=O)(=O)c1cccc2c1c([N+](=O)[O-])cc1nc(O)c(O)nc12", "note": "[NBQX]", "values": [
      {"measurement": "Effect on short latency EPSCs in human t-hCS neurons", "setting": "[8]", "result": "blocked"},
      {"measurement": "Effect on short-latency EPSCs in rat pyramidal cortical neurons", "setting": "[9]", "result": "blocked"}
    ]},
    {"smiles": "Nc1ccncc1", "note": "[4-AP, 4 Amino-Pyridine]", "values": [
      {"measurement": "Effect on blue light-evoked responses in rat cortical neurons", "setting": "[10]", "result": "recovered"}
    ]},
    {"smiles": "Cc1cc(-c2ncc(CC(=O)Nc3ccc(-c4cnccn4)cn3)cc2C)ccn1", "note": "[LGK-974]", "values": [
      {"measurement": "IC50", "setting": "[11]", "result": 0.4, "unit": "nM"}
    ]}
  ]
}
